Assay results from ChEMBL document CHEMBL5727130, “Pyridone derivative, pharmaceutical containing the same and methods of use thereof” (2018).

Assay: Inhibition Assay: The TACE inhibition test was carried out by measuring TACE activity in the presence and the absence of the test substance using the thus-obtained TACE as an enzyme, and a fluorescent synthetic substrate Nma(N-methylanthranilic acid)-Leu-Ala-Gln-Ala-Val-Arg-Ser-Ser-Lys(Dnp(dinitrophenyl))-D-Arg-NH2 (SEQ ID NO: 1) including the TACE-cleaved sequence of a membrane-bound TNF as a substrate. The TACE inhibition test method is shown below. Namely, 90 μL of an enzyme solution prepared with an assay buffer A (50 mM tris-hydrochloric acid buffer (pH 7.5) including 200 mM sodium chloride, 5 mM calcium chloride, 10 μM zinc sulfate, and 2 mg/mL bovine serum albumin) and 90 μL of a fluorescent synthetic substrate prepared with an assay buffer B (50 mM tris-hydrochloric acid buffer (pH 7.5) including 200 mM sodium chloride, 5 mM calcium chloride, 10 μM zinc sulfate, and 0.05% PLURONIC F-68) were mixed together, and reacted at 37° C. for 1.5 hours. Enzyme activity was then determined by measuring with a fluorescence intensity meter (Labsystems, Fluoroskan Ascent) at an excitation wavelength of 355 nm and a measurement wavelength of 460 nm.

Compound	IC50 [nM]
Cc1cccn(CC2(c3ccc(Oc4ccc(Cl)cc4)cc3)NC(=O)NC2=O)c1=O (configuration not stated)	< 100
Cc1cccn(CC2(c3ccc(F)c(F)c3)NC(=O)NC2=O)c1=O (configuration not stated)	< 100
